PubChem BioAssay AID1259407 (Chemical Carcinogenesis Research Information System (CCRIS), 2018)
Active and inactive are the calls of the source. No rule for the calls is given here.

Tested on: CCRIS mutagenicity, Ames/micronucleus/aberration tests
Assay: CCRIS mutagenicity studies
[1] = Test System: AMES SALMONELLA TYPHIMURIUM, Strain/Indicator: TA98, Metabolic Activation: NONE, Method: STANDARD PLATE
[2] = Test System: AMES SALMONELLA TYPHIMURIUM, Strain/Indicator: TA98, Metabolic Activation: RAT, LIVER, S-9, AROCLOR 1254, Method: STANDARD PLATE
[3] = Test System: AMES SALMONELLA TYPHIMURIUM, Strain/Indicator: TA100, Metabolic Activation: NONE, Method: PREINCUBATION
[4] = Test System: AMES SALMONELLA TYPHIMURIUM, Strain/Indicator: TA100, Metabolic Activation: NONE, Method: STANDARD PLATE
[5] = Test System: AMES SALMONELLA TYPHIMURIUM, Strain/Indicator: TA100, Metabolic Activation: RAT, LIVER, S-9, AROCLOR 1254, Method: STANDARD PLATE
[6] = Test System: AMES SALMONELLA TYPHIMURIUM, Strain/Indicator: TA1535, Metabolic Activation: NONE, Method: STANDARD PLATE

c1ccc(C2CO2)cc1 (stereo not drawn)
mutagenic call (End Point: IN VITRO CHROMOSOMAL ABERRATIONS, Test System: CHL CELLS, Metabolic Activation: RAT, LIVER, S-9, SODIUM PHENOBARBITAL AND 5,6-BENZOFLAVONE): active; positive (structural changes)
mutagenic call (Test System: AMES SALMONELLA TYPHIMURIUM, Strain/Indicator: TA97, Metabolic Activation: NONE, Method: STANDARD PLATE): active; positive
mutagenic call (Test System: AMES SALMONELLA TYPHIMURIUM, Strain/Indicator: TA97, Metabolic Activation: RAT, LIVER, S-9, AROCLOR 1254, Method: STANDARD PLATE): inactive; negative
mutagenic call (Test System: AMES SALMONELLA TYPHIMURIUM, Strain/Indicator: TA98, Metabolic Activation: HAMSTER, LIVER, S-9, AROCLOR 1254 (30%), Method: PREINCUBATION): inactive; negative
mutagenic call [1]: inactive; negative
mutagenic call (Test System: AMES SALMONELLA TYPHIMURIUM, Strain/Indicator: TA98, Metabolic Activation: RAT LIVER S-9, PHENOBARBITAL AND BETA-NAPHTHOFLAVONE, Method: PREINCUBATION): inactive; negative
mutagenic call (Test System: AMES SALMONELLA TYPHIMURIUM, Strain/Indicator: TA98, Metabolic Activation: RAT, LIVER, S-9, AROCLOR 1254 (30%), Method: PREINCUBATION): inactive; negative
mutagenic call [2]: inactive; negative
mutagenic call (Test System: AMES SALMONELLA TYPHIMURIUM, Strain/Indicator: TA100, Metabolic Activation: HAMSTER, LIVER, S-9, AROCLOR 1254 (30%), Method: PREINCUBATION): active; positive
mutagenic call [3]: active; positive
mutagenic call [4]: active; positive
mutagenic call (Test System: AMES SALMONELLA TYPHIMURIUM, Strain/Indicator: TA100, Metabolic Activation: RAT LIVER S-9, PHENOBARBITAL AND BETA-NAPHTHOFLAVONE, Method: PREINCUBATION): active; positive
mutagenic call (Test System: AMES SALMONELLA TYPHIMURIUM, Strain/Indicator: TA100, Metabolic Activation: RAT, LIVER, S-9, AROCLOR 1254 (30%), Method: PREINCUBATION): active; positive
mutagenic call [5]: inactive; negative
mutagenic call (Test System: AMES SALMONELLA TYPHIMURIUM, Strain/Indicator: TA104, Metabolic Activation: NONE, Method: STANDARD PLATE): active; positive
mutagenic call (Test System: AMES SALMONELLA TYPHIMURIUM, Strain/Indicator: TA1535, Metabolic Activation: NONE, Method: PREINCUBATION): active; positive
mutagenic call [6]: active; positive
mutagenic call (Test System: AMES SALMONELLA TYPHIMURIUM, Strain/Indicator: TA1535, Metabolic Activation: RAT LIVER S-9, PHENOBARBITAL AND BETA-NAPHTHOFLAVONE, Method: PREINCUBATION): active; positive
mutagenic call (Test System: AMES SALMONELLA TYPHIMURIUM, Strain/Indicator: TA1537, Metabolic Activation: NONE, Method: PREINCUBATION): active; positive
mutagenic call (Test System: AMES SALMONELLA TYPHIMURIUM, Strain/Indicator: TA1537, Metabolic Activation: RAT LIVER S-9, PHENOBARBITAL AND BETA-NAPHTHOFLAVONE, Method: PREINCUBATION): inactive; negative
mutagenic call (Test System: AMES SALMONELLA TYPHIMURIUM, Strain/Indicator: TA4001, Metabolic Activation: NONE, Method: STANDARD PLATE): active; positive
mutagenic call (Test System: AMES SALMONELLA TYPHIMURIUM, Strain/Indicator: TA4006, Metabolic Activation: NONE, Method: STANDARD PLATE): active; positive
mutagenic call (Test System: CHINESE HAMSTER V-79, Strain/Indicator: V-79/6-THIOGUANINE, Metabolic Activation: NONE, Method: FLASK ASSAY): inactive; negative
mutagenic call (Test System: CHINESE HAMSTER V-79, Strain/Indicator: V-79/8-AZAGUANINE, Metabolic Activation: NONE, Method: STANDARD PLATE): active; positive
mutagenic call (Test System: E. COLI, Strain/Indicator: WP2 UVRA, Metabolic Activation: NONE, Method: STANDARD PLATE): active; positive
mutagenic call (Test System: E.COLI, Strain/Indicator: WP2UVRA, Metabolic Activation: NONE, Method: PREINCUBATION): active; positive
mutagenic call (Test System: E.COLI, Strain/Indicator: WP2UVRA, Metabolic Activation: RAT LIVER S-9, PHENOBARBITAL AND BETA-NAPHTHOFLAVONE, Method: PREINCUBATION): active; positive
mutagenic call (Test System: HUMAN T LYMPHOCYTES, PRIMARY CULTURES, Strain/Indicator: HPRT/6-THIOGUANINE, Metabolic Activation: NONE, Method: SUSPENSION/PLATE): active; positive
mutagenic call (Test System: UDS HUMAN CELLS, Strain/Indicator: THY INCORP (NON-S-PHASE), Metabolic Activation: NONE, Method: LIQUID SCINTILLATION COUNTING): active; positive

N#Cc1cccc(/C=C/c2ccc([N+](=O)[O-])cc2)c1
mutagenic call (Test System: AMES SALMONELLA TYPHIMURIUM, Strain/Indicator: TA98(NR), Metabolic Activation: NONE, Method: STANDARD PLATE): active; positive
mutagenic call (Test System: AMES SALMONELLA TYPHIMURIUM, Strain/Indicator: TA98 (NR), Metabolic Activation: S-9, Method: STANDARD PLATE): active; positive
mutagenic call [1]: active; positive
mutagenic call (Test System: AMES SALMONELLA TYPHIMURIUM, Strain/Indicator: TA98, Metabolic Activation: S-9, Method: STANDARD PLATE): active; positive
mutagenic call (Test System: AMES SALMONELLA TYPHIMURIUM, Strain/Indicator: TA100 (NR), Metabolic Activation: NONE, Method: STANDARD PLATE): inactive; negative
mutagenic call (Test System: AMES SALMONELLA TYPHIMURIUM, Strain/Indicator: TA100(NR), Metabolic Activation: S-9, Method: STANDARD PLATE): inactive; negative
mutagenic call [4]: active; positive
mutagenic call (Test System: AMES SALMONELLA TYPHIMURIUM, Strain/Indicator: TA100, Metabolic Activation: S-9, Method: STANDARD PLATE): active; positive

COc1cc2c(c3oc(=O)c4c(c13)CCC4=O)[C@@H]1CCO[C@@H]1O2
mutagenic call [2]: active; positive
mutagenic call [3]: active; positive
mutagenic call [5]: active; positive
mutagenic call (Test System: AMES SALMONELLA TYPHIMURIUM, Strain/Indicator: TA100, Metabolic Activation: RAT, LIVER, S-9, PHENOBARBITAL, Method: PREINCUBATION): active; positive
mutagenic call (Test System: CHINESE HAMSTER V-79, Strain/Indicator: V-79/6-THIOGUANINE, Metabolic Activation: RAT, LIVER, S-9, PHENOBARBITAL, Method: STANDARD PLATE): active; positive

CCOP(=S)(OCC)Oc1cnc2ccccc2n1
mutagenic call [1]: inactive; negative
mutagenic call (Test System: AMES SALMONELLA TYPHIMURIUM, Strain/Indicator: TA98, Metabolic Activation: S-9, NADPH GENERATING SYSTEM, Method: STANDARD PLATE): inactive; negative
mutagenic call (Test System: AMES SALMONELLA TYPHIMURIUM, Strain/Indicator: TA102, Metabolic Activation: NONE, Method: STANDARD PLATE): inactive; negative
mutagenic call (Test System: AMES SALMONELLA TYPHIMURIUM, Strain/Indicator: TA102, Metabolic Activation: S-9, NADPH GENERATING SYSTEM, Method: STANDARD PLATE): inactive; negative
mutagenic call [6]: inactive; negative
mutagenic call (Test System: AMES SALMONELLA TYPHIMURIUM, Strain/Indicator: TA1535, Metabolic Activation: S-9, NADPH GENERATING SYSTEM, Method: STANDARD PLATE): inactive; negative
mutagenic call (Test System: AMES SALMONELLA TYPHIMURIUM, Strain/Indicator: TA1537, Metabolic Activation: NONE, Method: STANDARD PLATE): inactive; negative
mutagenic call (Test System: AMES SALMONELLA TYPHIMURIUM, Strain/Indicator: TA1537, Metabolic Activation: S-9, NADPH GENERATING SYSTEM, Method: STANDARD PLATE): inactive; negative

N[C@@H](CCC(=O)Nc1ccc([N+](=O)[O-])cc1)C(=O)O
mutagenic call [4]: inactive; negative
mutagenic call (Test System: AMES SALMONELLA TYPHIMURIUM, Strain/Indicator: TA100, Metabolic Activation: RAT KIDNEY, MICROSOMES, Method: STANDARD PLATE): inactive; negative
mutagenic call (Test System: AMES SALMONELLA TYPHIMURIUM, Strain/Indicator: TA100, Metabolic Activation: RAT LIVER, MICROSOMES, Method: STANDARD PLATE): inactive; negative
